pKi: −log10 of the molar value.
What was measured:
human Src kinase = target: T1, human Src kinase (Homo sapiens, UniProt P12931); assay: Src inhibition assay (A: radioactivity-based or B: spectrophotometric coupled-enzyme assay); assay type: biochemical; conditions: assay A or B not specified; inhibitor concentration not given
T1 construct: full length recombinant human Src kinase; purchased Upstate Biotechnology 14-117; host or cells: baculovirus-infected cells
Description: The compounds were evaluated as inhibitors of human Src kinase using either a radioactivity-based assay or spectrophotometric assay.
The compounds were assayed as inhibitors of full length recombinant human Src kinase (from Upstate Biotechnology, cat. no. 14-117) expressed and purified from baculo viral cells. Src kinase activity was monitored by following the incorporation of ^33p from ATP into the tyrosine of a random poly Glu-Tyr polymer substrate of composition, Glu:Tyr=4:1 (Sigma, cat. no. P-0275). The following were the final concentrations of the assay components: 0.05 M HEPES, pH 7.6, 10 mM MgCl2, 2 mM DTT, 0.25 mg/ml BSA, 10 μM ATP (1-2 uCi ^33P-ATP per reaction), 5 mg/ml poly Glu-Tyr, and 1-2 units of recombinant human Src kinase. In a typical assay, all the reaction components with the exception of ATP were pre-mixed and aliquoted into assay plate wells.
Inhibitors dissolved in DMSO were added to the wells to give a final DMSO concentration of 2.5%. The assay plate was incubated at 30° C. for 10 min before initiating the reaction with ^33P-ATP. After 20 min of reaction, the reactions were quenched with 150 μl of 10% trichloroacetic acid (TCA) containing 20 mM Na3PO4. The quenched samples were then transferred to a 96-well filter plate (Whatman, UNI-Filter GF/F Glass Fiber Filter, cat no. 7700-3310) installed on a filter plate vacuum manifold. Filter plates were washed four times with 10% TCA containing 20 mM Na3PO4 and then 4 times with methanol. 200 μl of scintillation fluid was then added to each well. The plates were sealed and the amount of radioactivity associated with the filters was quantified on a TopCount scintillation counter. The radioactivity incorporated was plotted as a function of the inhibitor concentration. The data was fitted to a competitive inhibition kinetics model to get the Ki for the compound.
The ADP produced from ATP by the human recombinant Src kinase-catalyzed phosphorylation of poly Glu-Tyr substrate was quanitified using a coupled enzyme assay (Fox et al (1998) Protein Sci 7, 2249). In this assay one molecule of NADH is oxidised to NAD for every molecule of ADP produced in the kinase reaction. The disappearance of NADH can be conveniently followed at 340 nm.
The following were the final concentrations of the assay components: 0.025 M HEPES, pH 7.6, 10 mM MgCl2, 2 mM DTT, 0.25 mg/ml poly Glu-Tyr, and 25 nM of recombinant human Src kinase. Final concentrations of the components of the coupled enzyme system were 2.5 mM phosphoenolpyruvate, 200 μM NADH, 30 μg/ml pyruvate kinase and 10 μg/ml lactate dehydrogenase.
In a typical assay, all the reaction components with the exception of ATP were pre-mixed and aliquoted into assay plate wells. Inhibitors dissolved in DMSO were added to the wells to give a final DMSO concentration of 2.5%. The assay plate was incubated at 30 C. for 10 min before initiating the reaction with 100 μM ATP. The absorbance change at 340 nm with time, the rate of the reaction, was monitored on a molecular devices plate reader. The data of rate as a function of the inhibitor concentration was fitted to compettive inhibition kinetics model to get the Ki for the compound.

human Lck kinase = human Lck kinase (UniProt P06239); assay: Lck inhibition assay (A: radioactivity-based or B: spectrophotometric coupled-enzyme assay); assay type: biochemical; conditions: read-out: Lck Activity (Ki rating)
Outline: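 Two formats. Radiometric: full-length bovine thymus Lck, poly(Glu:Tyr 4:1) 5 mg/ml, 10 μM ATP with ^33P-ATP, HEPES pH 7.6, 10 min preincubation then 20 min at 30 °C, TCA-quenched filter counting. Coupled: 50 nM recombinant human Lck, 150 μM ATP, NADH loss at 340 nm. Ki from competitive-inhibition fit.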

T1 sequence (P12931 whole entry): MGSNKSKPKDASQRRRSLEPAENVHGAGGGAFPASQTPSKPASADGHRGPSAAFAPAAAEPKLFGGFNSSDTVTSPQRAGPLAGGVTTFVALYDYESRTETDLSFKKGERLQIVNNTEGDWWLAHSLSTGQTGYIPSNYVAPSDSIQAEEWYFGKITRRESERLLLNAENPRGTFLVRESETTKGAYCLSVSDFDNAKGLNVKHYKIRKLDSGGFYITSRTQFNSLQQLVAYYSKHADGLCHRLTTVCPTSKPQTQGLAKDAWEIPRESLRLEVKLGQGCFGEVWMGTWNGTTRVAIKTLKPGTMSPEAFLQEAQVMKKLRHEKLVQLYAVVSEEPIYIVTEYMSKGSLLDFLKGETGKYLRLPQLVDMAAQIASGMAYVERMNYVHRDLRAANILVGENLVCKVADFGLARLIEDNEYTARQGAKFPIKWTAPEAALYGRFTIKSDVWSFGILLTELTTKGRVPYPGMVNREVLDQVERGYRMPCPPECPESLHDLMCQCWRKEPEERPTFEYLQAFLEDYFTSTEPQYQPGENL

| SMILES | Src Activity (percent inhibition class D-F) (human Src kinase) | pKi (human Lck kinase) |
| --- | --- | --- |
| CSc1sc(-c2ccnc(Nc3ccccc3)n2)c(-c2ccc(Cl)cc2)c1C#N [IIa-10, 2-Methylsulfanyl-5-(2-phenylamino-pyrimidin-4-yl)-4-(4-chloro-phenyl)-thiophene-3-carbonitrile] | F (compounds having an activity designated as “F” provided a provided a percent inhibition of between 67% and 100%) | > 7.00 |
| CCOc1sc(-c2ccnc(Nc3ccccc3)n2)c(-c2ccc(Cl)cc2)c1C#N [IIa-11, 2-Ethoxy-5-(2-phenylamino-pyrimidin-4-yl)-4-(4-chloro-phenyl)-thiophene-3-carbonitrile] | F (compounds having an activity designated as “F” provided a provided a percent inhibition of between 67% and 100%) | 6.00 to 7.00 |
| CSc1sc(-c2ccnc(Nc3ccccc3)n2)c(-c2ccc(C)cc2)c1C#N [IIa-14, 2-Methylsulfanyl-5-(2-phenylamino-pyrimidin-4-yl)-4-p-tolyl-thiophene-3-carbonitrile] | F (compounds having an activity designated as “F” provided a provided a percent inhibition of between 67% and 100%) | > 7.00 |
| CCOc1sc(-c2ccnc(Nc3ccccc3)n2)c(-c2ccc(C)cc2)c1C#N [IIa-15, 2-Ethoxy-5-(2-phenylamino-pyrimidin-4-yl)-4-p-tolyl-thiophene-3-carbonitrile] | F (compounds having an activity designated as “F” provided a provided a percent inhibition of between 67% and 100%) | > 7.00 |

From patent US6642227B2, “Inhibitors of c-Jun N-terminal kinases (JNK) and other protein kinases” (Vertex Pharmaceuticals Incorporated, priority 2001, dated 2003)
